Source: the supplement of paper PMC10307832

Key:
Test in all cases: relative viability (nuclei count vs DMSO), 5 days (fraction); higher = more cells survive
ChaGo-K-1 = test system: ChaGo-K-1
In short: (§1)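 Five library-drug doses in √10 steps were combined with a fixed anchor-drug dose, or a single drug was given alone, by pin tool to lung cancer cell lines in 1536-well plates the day after seeding. Nuclei were stained and counted after 5 days. Relative viability is the nuclei count in treated wells over that in vehicle wells, taken as the median of duplicate plates.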

HCC-78 = test system: HCC-78
In short: as §1

HCC-827 = test system: HCC-827
In short: as §1

LCLC-97TM1 = test system: LCLC-97TM1
In short: as §1

LK-2 = test system: LK-2
In short: as §1

LOU-NH91 = test system: LOU-NH91
In short: as §1

NCI-H1355 = test system: NCI-H1355
In short: as §1

NCI-H1395 = test system: NCI-H1395
In short: as §1

NCI-H1755 = test system: NCI-H1755
In short: as §1

NCI-H1792 = test system: NCI-H1792
In short: as §1

NCI-H1993 = test system: NCI-H1993
In short: as §1

NCI-H2009 = test system: NCI-H2009
In short: as §1

NCI-H2085 = test system: NCI-H2085
In short: as §1

NCI-H2228 = test system: NCI-H2228
In short: as §1

NCI-H2342 = test system: NCI-H2342
In short: as §1

NCI-H2405 = test system: NCI-H2405
In short: as §1

NCI-H441 = test system: NCI-H441
In short: as §1

NCI-H520 = test system: NCI-H520
In short: as §1

NCI-H522 = test system: NCI-H522
In short: as §1

NCI-H647 = test system: NCI-H647
In short: as §1

NCI-H661 = test system: NCI-H661
In short: as §1

PC-3 [JPC-3] = test system: PC-3 [JPC-3]
In short: as §1

SK-MES-1 = test system: SK-MES-1
In short: as §1

Oc1nc(-c2ccc(C(F)(F)F)cc2)nc2c1CSCC2 [XAV939] + Cc1nc(Nc2ncc(C(=O)Nc3c(C)cccc3Cl)s2)cc(N2CCN(CCO)CC2)n1 [Dasatinib] (partner 0.075 µM)
relative viability (ChaGo-K-1; first compound 0.08 µM): 0.654
relative viability (ChaGo-K-1; first compound 0.253 µM): 0.639
relative viability (ChaGo-K-1; first compound 0.8 µM): 0.587
relative viability (ChaGo-K-1; first compound 2.53 µM): 0.56
relative viability (HCC-78; first compound 0.08 µM): 0.37
relative viability (HCC-78; first compound 0.253 µM): 0.398
relative viability (HCC-78; first compound 0.8 µM): 0.338
relative viability (HCC-78; first compound 2.53 µM): 0.399
relative viability (HCC-827; first compound 0.08 µM): 0.349
relative viability (HCC-827; first compound 0.253 µM): 0.297
relative viability (HCC-827; first compound 0.8 µM): 0.393
relative viability (HCC-827; first compound 2.53 µM): 0.437
relative viability (LCLC-97TM1; first compound 0.08 µM): 0.981
relative viability (LCLC-97TM1; first compound 0.253 µM): 0.851
relative viability (LCLC-97TM1; first compound 0.8 µM): 0.964
relative viability (LCLC-97TM1; first compound 2.53 µM): 0.977
relative viability (LK-2; first compound 0.08 µM): 0.262
relative viability (LK-2; first compound 0.253 µM): 0.31
relative viability (LK-2; first compound 0.8 µM): 0.27
relative viability (LK-2; first compound 2.53 µM): 0.399
relative viability (LOU-NH91; first compound 0.08 µM): 0.519
relative viability (LOU-NH91; first compound 0.253 µM): 0.5
relative viability (LOU-NH91; first compound 0.8 µM): 0.501
relative viability (LOU-NH91; first compound 2.53 µM): 0.526
relative viability (NCI-H1355; first compound 0.08 µM): 0.569
relative viability (NCI-H1355; first compound 0.253 µM): 0.495
relative viability (NCI-H1355; first compound 0.8 µM): 0.507
relative viability (NCI-H1355; first compound 2.53 µM): 0.356
relative viability (NCI-H1395; first compound 0.08 µM): 0.4
relative viability (NCI-H1395; first compound 0.253 µM): 0.378
relative viability (NCI-H1395; first compound 0.8 µM): 0.381
relative viability (NCI-H1395; first compound 2.53 µM): 0.458
relative viability (NCI-H1755; first compound 0.08 µM): 0.484
relative viability (NCI-H1755; first compound 0.253 µM): 0.324
relative viability (NCI-H1755; first compound 0.8 µM): 0.424
relative viability (NCI-H1755; first compound 2.53 µM): 0.413
relative viability (NCI-H1792; first compound 0.08 µM): 0.877
relative viability (NCI-H1792; first compound 0.253 µM): 0.809
relative viability (NCI-H1792; first compound 0.8 µM): 0.87
relative viability (NCI-H1792; first compound 2.53 µM): 0.725
relative viability (NCI-H1993; first compound 0.08 µM): 0.52
relative viability (NCI-H1993; first compound 0.253 µM): 0.52
relative viability (NCI-H1993; first compound 0.8 µM): 0.557
relative viability (NCI-H1993; first compound 2.53 µM): 0.535
relative viability (NCI-H2009; first compound 0.08 µM): 0.31
relative viability (NCI-H2009; first compound 0.253 µM): 0.271
relative viability (NCI-H2009; first compound 0.8 µM): 0.205
relative viability (NCI-H2009; first compound 2.53 µM): 0.208
relative viability (NCI-H2085; first compound 0.08 µM): 0.288
relative viability (NCI-H2085; first compound 0.253 µM): 0.196
relative viability (NCI-H2085; first compound 0.8 µM): 0.285
relative viability (NCI-H2085; first compound 2.53 µM): 0.204
relative viability (NCI-H2228; first compound 0.08 µM): 0.496
relative viability (NCI-H2228; first compound 0.253 µM): 0.426
relative viability (NCI-H2228; first compound 0.8 µM): 0.473
relative viability (NCI-H2228; first compound 2.53 µM): 0.382
relative viability (NCI-H2342; first compound 0.08 µM): 0.309
relative viability (NCI-H2342; first compound 0.253 µM): 0.285
relative viability (NCI-H2342; first compound 0.8 µM): 0.326
relative viability (NCI-H2342; first compound 2.53 µM): 0.254
relative viability (NCI-H2405; first compound 0.08 µM): 0.221
relative viability (NCI-H2405; first compound 0.253 µM): 0.225
relative viability (NCI-H2405; first compound 0.8 µM): 0.214
relative viability (NCI-H2405; first compound 2.53 µM): 0.229
relative viability (NCI-H441; first compound 0.08 µM): 0.602
relative viability (NCI-H441; first compound 0.253 µM): 0.66
relative viability (NCI-H441; first compound 0.8 µM): 0.779
relative viability (NCI-H441; first compound 2.53 µM): 0.536
relative viability (NCI-H520; first compound 0.08 µM): 0.179
relative viability (NCI-H520; first compound 0.253 µM): 0.17
relative viability (NCI-H520; first compound 0.8 µM): 0.152
relative viability (NCI-H520; first compound 2.53 µM): 0.193
relative viability (NCI-H522; first compound 0.08 µM): 0.982
relative viability (NCI-H522; first compound 0.253 µM): 0.812
relative viability (NCI-H522; first compound 0.8 µM): 0.465
relative viability (NCI-H522; first compound 2.53 µM): 0.779
relative viability (NCI-H647; first compound 0.08 µM): 0.164
relative viability (NCI-H647; first compound 0.253 µM): 0.207
relative viability (NCI-H647; first compound 0.8 µM): 0.201
relative viability (NCI-H647; first compound 2.53 µM): 0.147
relative viability (NCI-H661; first compound 0.08 µM): 1
relative viability (NCI-H661; first compound 0.253 µM): 0.851
relative viability (NCI-H661; first compound 0.8 µM): 0.812
relative viability (NCI-H661; first compound 2.53 µM): 0.637
relative viability (PC-3 [JPC-3]; first compound 0.08 µM): 1.09
relative viability (PC-3 [JPC-3]; first compound 0.253 µM): 0.899
relative viability (PC-3 [JPC-3]; first compound 0.8 µM): 0.938
relative viability (PC-3 [JPC-3]; first compound 2.53 µM): 1.05
relative viability (SK-MES-1; first compound 0.08 µM): 0.339
relative viability (SK-MES-1; first compound 0.253 µM): 0.344
relative viability (SK-MES-1; first compound 0.8 µM): 0.392
relative viability (SK-MES-1; first compound 2.53 µM): 0.284
